Assay results reported in patent EP0686628A2, “Prostaglandin F esters” (ONO PHARMACEUTICAL CO., LTD., priority 1994, dated 1995).

What was measured:
intraocular pressure [1] = test: Experiment 2: ocular hypotensive effect (Δ IOP) after instillation of a 0.02% solution, comparison with compared compounds; assay type: in vivo, Male Japanese White rabbits; settings: rabbit; for Ocular Hypotensive Effects on Intraocular Pressure (Δ IOP), Time after Administration 0 hr.: 0 hr. after administration (baseline); for Ocular Hypotensive Effects on Intraocular Pressure (Δ IOP), Time after Administration 1 hr.: 1 hr. after administration; for Ocular Hypotensive Effects on Intraocular Pressure (Δ IOP), Time after Administration 2 hr.: 2 hr. after administration; for Ocular Hypotensive Effects on Intraocular Pressure (Δ IOP), Time after Administration 4 hr.: 4 hr. after administration; for Ocular Hypotensive Effects on Intraocular Pressure (Δ IOP), Time after Administration 6 hr.: 6 hr. after administration; for initial elevation of the intraocular pressure: side effect
Description: (§1) Male Japanese White rabbits weighing about 3.0 kg were lightly held and the intraocular pressure was measured by Applanation Pneumatonograph after corneal anesthesia with instillation of 0.4% oxybuprocaine hydrochloride solution.
(§2) A test compound was dissolved at 0.1% in vehicle which contains 2.5% glycerol and 2.0% polysorbate 80 in sterile purified water. The test solution at volume of […] was instilled into the left eye of each rabbit and the right eye remained untreated. As a control, the vehicle was instilled into the left eye in a control group. Δ IOP (mmHg), which is an index of ocular hypotensive effect, were calculated using below formula. Δ IOP = (IOPt - IOP0) - (IOPvt - IOPv0) [formula] IOPt : IOP at t hr. after instillation of a test solution IOPvt : IOP at t hr. after instillation of vehicle IOP0 : IOP just before instillation of a test solution IOPv0 : IOP just before instillation of vehicle
Further, the compounds of the present invention were compared with the compounds shown concretely in related arts hereinbefore described. The compounds have chemical structures quite similar to the compounds of the present invention were selected as compared compounds. 0.02% solutions of the compounds of the present invention were compared with the compared compounds, because the 0.02% solution is close to concentration used actually.
The compounds of the present invention and compared compounds were dissolved in vehicle at 0.02%, and Δ IOPs (mmHg) after instillation of these solution, which are the index of ocular hypotensive effects, were calculated in the same way as the experiment 1.
The graphs of the results shown in the Table 1 and Table 2 were Figure 1 and Figure 2.

intraocular pressure [2] = test: Experiment 1: ocular hypotensive effect (Δ IOP) after instillation of a 0.1% solution into the rabbit eye; assay type: in vivo, Male Japanese White rabbits; settings: 0.1% solution instilled into left eye, vehicle-corrected, mean of three or four samples
Description: as §1, §2
For example, the maximum reduction of IOP after instillation of the compounds shown as examples 1, 1(a), 1(b), 2, 3, 4 and 5 hereinafter were 6.0, 5.7, 5.4, 4.0, 4.7, 6.7 and 9.8 mmHg, respectively. And when the compound of the present invention was instilled, bulbar and palpebral conjunctival hyperemia could hardly be observed.

duration of the initial elevation of intraocular pressure (intraocular pressure [1])	Compound	time after administration at which the ocular hypotensive effect appeared (intraocular pressure [1])	Ocular Hypotensive Effects on Intraocular Pressure (Δ IOP), Time after Administration 0 hr. (intraocular pressure [1])	Ocular Hypotensive Effects on Intraocular Pressure (Δ IOP), Time after Administration 1 hr. (intraocular pressure [1])	Ocular Hypotensive Effects on Intraocular Pressure (Δ IOP), Time after Administration 2 hr. (intraocular pressure [1])	Ocular Hypotensive Effects on Intraocular Pressure (Δ IOP), Time after Administration 4 hr. (intraocular pressure [1])	Ocular Hypotensive Effects on Intraocular Pressure (Δ IOP), Time after Administration 6 hr. (intraocular pressure [1])	initial elevation of the intraocular pressure (intraocular pressure [1])	time after administration for which the activity was maintained (intraocular pressure [1])	maximum reduction of IOP after instillation (intraocular pressure [2])	activity (reduction of intraocular pressure) reached at 4 hrs. after administration (intraocular pressure [1]; 4 hrs. after administration, printed as magnitude)
–	CCCCC[C@H](O)CC[C@@H]1[C@@H](C/C=C\CCCC(=O)OC2CCCCC2)[C@@H](O)C[C@H]1O [Compared compound 1, 13,14-dihydro-PGF2α cyclohexyl ester, reference compound]	4 h	0 mmHg	11.3 mmHg	2.3 mmHg	-5.6 mmHg	-9.3 mmHg	showed extremely strong initial elevation	–	–	–
–	CCCCC(C)(C)[C@H](O)/C=C/[C@@H]1[C@@H](C/C=C\CCCC(=O)OCC)[C@H](O)C[C@H]1O [Example 5, 16,16-dimethyl-PGF2β ethyl ester]	1 h	0 mmHg	-2.0 mmHg	-3.5 mmHg	-7.3 mmHg	-7.3 mmHg	did not show initial elevation	6 h	9.8 mmHg	–
–	CCCCC(C)(C)[C@H](O)/C=C/[C@@H]1[C@@H](C/C=C\CCCC(=O)OC(C)C)[C@@H](O)C[C@H]1O [Example 3, 16,16-dimethyl-PGF2α isopropyl ester]	–	–	–	–	–	–	–	–	4.7 mmHg	–
–	CCCCC(C)(C)[C@H](O)/C=C/[C@@H]1[C@@H](C/C=C\CCCC(=O)OC(C)C)[C@H](O)C[C@H]1O [Example 4, 16,16-dimethyl-PGF2β isopropyl ester]	1 h	0 mmHg	-5.0 mmHg	-5.0 mmHg	-12.3 mmHg	-9.6 mmHg	did not show initial elevation	6 h	6.7 mmHg	–
–	CCCCC[C@H](O)CC[C@@H]1[C@@H](C/C=C\CCCC(=O)Oc2ccccc2)[C@H](O)C[C@H]1O [Example 1(a), 13,14-dihydro-PGF2β phenyl ester]	–	–	–	–	–	–	–	–	5.7 mmHg	–
4 h	CCCCC(C)(C)[C@H](O)/C=C/[C@@H]1[C@@H](C/C=C\CCCC(=O)O)[C@@H](O)C[C@H]1O [Compared compound 2, 16,16-dimethyl-PGF2α, reference compound]	4 h	0 mmHg	4.5 mmHg	4.5 mmHg	-2.0 mmHg	-0.8 mmHg	showed initial elevation	–	–	–
–	CCCCC[C@H](O)CC[C@@H]1[C@@H](C/C=C\CCCC(=O)OCc2ccccc2)[C@H](O)C[C@H]1O [Example 1(b), 13,14-dihydro-PGF2β benzyl ester]	–	–	–	–	–	–	–	–	5.4 mmHg	–
–	CCCCC(C)(C)[C@H](O)CC[C@@H]1[C@@H](C/C=C\CCCC(=O)OC(C)C)[C@@H](O)C[C@H]1O [Example 2, 16,16-dimethyl-13,14-dihydro-PGF2α isopropyl ester]	–	–	–	–	–	–	–	–	4.0 mmHg	–
–	CCCCC[C@H](O)CC[C@@H]1[C@@H](C/C=C\CCCC(=O)OC2CCCCC2)[C@H](O)C[C@H]1O [Example 1, 13,14-dihydro-PGF2β cyclohexyl ester]	1 h	0 mmHg	-2.0 mmHg	-2.3 mmHg	-6.6 mmHg	-1.8 mmHg	did not show initial elevation	6 h	6.0 mmHg	6.6 mmHg
